Results: US20060058390A1 (priority 2004, published 2006)
Like-named read-outs stand apart in the source and are kept apart here.

Columns and labels:
[1] = test system: oxidative stress-induced ototoxicity and nephrotoxicity; conditions: in vivo; cited from earlier work
[2] = male, Sprague-Dawley, rat, in vivo, 150 mg/kg
Experimental: Twenty-six male Sprague-Dawley rats weighing approximately 200 to 300 g were used for the study. The jugular vein of six animals were cannulated and the rest of the animals were used without any further preparation.
Dosing was conducted on two occasions. […] The drug was prepared in a suspension formulation in accordance with the present invention. The blood samples (approximately 0.5 mL/sample) were collected from each animal at predose, 15, 30 minutes, 1, 2, 4 and 6 hours postdose into microtainer tubes containing lithium heparin as an anticoagulant. Replacement blood was infused into each animal following each blood draw. […] The drug was prepared in a solution formulation. […] Blood samples were collected from each animal via the orbital sinus at predose, 2, 15, 30 minutes, 1, 2, 4 and 6 hours postdose. Each animal was bled twice. The blood was centrifuged immediately and the resulting plasma in tubes was flash frozen in liquid nitrogen and stored at approximately −70° C. until analysis.
L-Methinione can also be detected under the same HPLC conditions.
Descriptive pharmacokinetic parameters were determined by standard model independent methods (Gibaldi, M. and Perrier, D. Pharmacokinetics, Second Edition, Marcel Dekker, Inc., New York, 1982) based on the mean plasma concentration-time data. The plasma concentrations were rounded to one decimal place before the calculation. Plasma samples with concentrations below the quantifiable limit (BQL) were assigned values of zero for the calculation of mean plasma concentration.
The mean plasma concentration-time profiles are depicted in FIG. 2.

[3] = cited from earlier work

AUC(0-inf) of L-Methionine ([2]; iv): 326.0 µg·h/mL
Cmax of L-Methionine ([2]; iv): 161700 ng/mL
T1/2 (half-life) of L-Methionine ([2]; iv): 1.9 h
Tmax of L-Methionine ([2]; iv): 0.50 h
Mean Plasma Concentrations of L-Methionine ([2]; iv, 0 h): 132.6 ng/mL
Mean Plasma Concentrations of L-Methionine ([2]; iv, 0.03 h): 132.6 ng/mL
Mean Plasma Concentrations of L-Methionine ([2]; iv, 0.25 h): 146.5 ng/mL
Mean Plasma Concentrations of L-Methionine ([2]; iv, 0.5 h): 161.7 ng/mL
Mean Plasma Concentrations of L-Methionine ([2]; iv, 1 h): 76.1 ng/mL
Mean Plasma Concentrations of L-Methionine ([2]; iv, 2 h): 45.4 ng/mL
Mean Plasma Concentrations of L-Methionine ([2]; iv, 4 h): 23.2 ng/mL
Mean Plasma Concentrations of L-Methionine ([2]; iv, 6 h): 10.7 ng/mL
AUC(0-inf) of L-Methionine ([2]; po): 450.2 µg·h/mL
Cmax of L-Methionine ([2]; po): 47200 ng/mL
T1/2 (half-life) of L-Methionine ([2]; po): 9.9 h
Tmax of L-Methionine ([2]; po): 2.00 h
Mean Plasma Concentrations of L-Methionine ([2]; po, 0 h): 7.8 ng/mL
Mean Plasma Concentrations of L-Methionine ([2]; po, 0.5 h): 33.1 ng/mL
Mean Plasma Concentrations of L-Methionine ([2]; po, 1 h): 32.0 ng/mL
Mean Plasma Concentrations of L-Methionine ([2]; po, 2 h): 47.2 ng/mL
Mean Plasma Concentrations of L-Methionine ([2]; po, 4 h): 22.2 ng/mL
Mean Plasma Concentrations of L-Methionine ([2]; po, 6 h): 18.8 ng/mL
Mean Plasma Concentrations of L-Methionine ([2]; po, 12 h): 12.6 ng/mL
Structure (SMILES): CSCC[C@H](N)C(=O)O [L-Methionine, L-methionine]
effect on oxidative stress-induced ototoxicity and nephrotoxicity associated with cisplatin [1]: effectively prevent
dosage reported safe for chronic administration ([3]; adult): 20 g/day
side-effects in human studies ([3]; most human studies): no side-effects
